# Results taken from patent US11634425B2, “Pharmaceutical compounds” (priority 2019, dated 2023).
# Where two headings read alike, the source gives them in different places.
# Assays:
# RSV A2 = assay: RSV plaque reduction assay; format: cell-based, respiratory syncytial virus (RSV); details: human respiratory syncytial virus, HepG2, Hep-G2 cells, mean of at least two experiments
# Procedure, shortened: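 RSV A2 at 100 PFU/well was premixed with eight compound dilutions and added to confluent Hep-G2 monolayers for 2 h at 37 °C. Cells were then kept 2 days under a DMEM/2% FBS/0.8% CMC overlay containing compound. Immunostained plaques were counted relative to virus controls, and EC50 came from 4-parameter fits, averaged over at least two experiments.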
# in vitro = in vitro ADME; details: microsomes, pH 7.4, 1 μM compound, 0.5 mg/mL protein, read-out: Liver Microsomal Stability t1/2
# Experimental: Compounds were subjected to the following assays to investigate liver microsomal stability and hepatocyte stability.
# Microsomal Incubation: Experimental Procedure
# Pooled liver microsomes were purchased from a reputable commercial supplier and stored at −80° C. prior to use. Microsomes (final protein concentration 0.5 mg/mL), 0.1 M phosphate buffer pH 7.4 and test compound (final substrate concentration 1 μM; final DMSO concentration 0.25%) were pre-incubated at 37° C. prior to the addition of NADPH (final concentration 1 mM) to initiate the reaction. The final incubation volume was 50 μL. A control incubation was included for each compound tested where 0.1 M phosphate buffer pH 7.4 was added instead of NADPH (minus NADPH). Two control compounds were included with each species. All incubations were performed singularly for each test compound. Each compound was incubated for 0, 5, 15, 30 and 45 min. The control (minus NADPH) was incubated for 45 min only. The reactions were stopped by transferring incubate into acetonitrile at the appropriate time points, in a 1:3 ratio. The termination plates are centrifuged at 3,000 rpm for 20 min at 4° C. to precipitate the protein. Following protein precipitation, the sample supernatants were combined in cassettes of up to 4 compounds, internal standard added, and samples analysed by LC-MS/MS. From a plot of ln peak area ratio (compound peak area/internal standard peak area) against time, the gradient of the line was determined. Subsequently, half-life (t1/2) and intrinsic clearance (CLint) were calculated.
# Cell cytotoxicity (CC50) = format: cell-based; details: human; mean of at least two experiments
# Procedure, shortened: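 Values are means of ≥2 independent runs, rounded to whole units, from 4-parameter variable-slope curve fits. Toxicity measured in Hep-G2 cells run alongside RSV plaque-reduction assays.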
SMILES,EC50 (RSV A2) [nM],half-life at 1 μM (in vitro; dog) [h],half-life at 1 μM (in vitro; human) [h],half-life at 1 μM (in vitro; rat) [h],CC50 (Cell cytotoxicity (CC50)) [nM]
"CC(C)Nc1ccc(-c2nn3cccnc3c2C(=O)N[C@H]2N=C(c3ccccc3)c3cccc(F)c3NC2=O)cn1 [Example 74, N-[(3S)-9-Fluoro-2-oxo-5-phenyl-1,3-dihydro-1,4-benzodiazepin-3-yl]-2-[6-(propan-2-ylamino)pyridin-3-yl]pyrazolo[1,5-a]pyrimidine-3-carboxamide]",28,0.725,4.4,1.17,> 25000
"Cc1ccn2nc(-c3ccc(F)cc3F)c(C(=O)N[C@H]3N=C(c4ccccc4)c4cccc(F)c4NC3=O)c2n1 [Example 36, 2-(2,4-Difluorophenyl)-N-[(3S)-9-fluoro-2-oxo-5-phenyl-1,3-dihydro-1,4-benzodiazepin-3-yl]-5-methylpyrazolo[1,5-a]pyrimidine-3-carboxamide]",27,3.7,> 2.33,0.557,> 25000
"Cn1ncc2cc(-c3nn4cccnc4c3C(=O)N[C@H]3N=C(c4ccccc4)c4cccc(F)c4NC3=O)ccc21 [Example 63, N-[(3S)-9-fluoro-2-oxo-5-phenyl-1,3-dihydro-1,4-benzodiazepin-3-yl]-2-(1-methylindazol-5-yl)pyrazolo[1,5-a]pyrimidine-3-carboxamide]",66,2.53,1.88,3.78,> 25000
"CN1CC(Oc2ccc3nc(-c4ccccc4)c(C(=O)N[C@H]4N=C(c5ccccc5)c5cccc(F)c5NC4=O)n3n2)C1 [Example 109, N-[(3S)-9-Fluoro-2-oxo-5-phenyl-1,3-dihydro-1,4-benzodiazepin-3-yl]-6-(1-methylazetidin-3-yl)oxy-2-phenylimidazo[1,2-b]pyridazine-3-carboxamide]",96,4.33,1.3,1.15,> 16800
"CC(C)Nc1ccc(-c2nn3cccnc3c2C(=O)N[C@H]2N=C(c3ccccc3)c3ccccc3NC2=O)c(F)n1 [Example 69, 2-[2-Fluoro-6-(propan-2-ylamino)pyridin-3-yl]-N-[(3S)-2-oxo-5-phenyl-1,3-dihydro-1,4-benzodiazepin-3-yl]pyrazolo[1,5-a]pyrimidine-3-carboxamide]",19,0.447,3.22,2.43,> 25000
"Cc1ccc(-c2nn3cccnc3c2C(=O)N[C@H]2N=C(c3ccccc3)c3ccccc3NC2=O)c(F)n1 [Example 85, 2-(2-Fluoro-6-methylpyridin-3-yl)-N-[(3S)-2-oxo-5-phenyl-1,3-dihydro-1,4-benzodiazepin-3-yl]pyrazolo[1,5-a]pyrimidine-3-carboxamide]",57,1.75,> 2.33,3.3,> 25000
"[2H]C([2H])([2H])Oc1ccc2nc(-c3ccccc3)c(C(=O)N[C@H]3N=C(c4ccccc4)c4cccc(F)c4NC3=O)n2n1 [Example 114, N-[(3S)-9-fluoro-2-oxo-5-phenyl-1,3-dihydro-1,4-benzodiazepin-3-yl]-2-phenyl-6-(trideuteriomethoxy)imidazo[1,2-b]pyridazine-3-carboxamide]",39,5.5,4.1,2.03,> 25000
"O=C(N[C@H]1N=C(c2ccccc2)c2cccc(F)c2NC1=O)c1c(-c2ccccc2Cl)nn2cccnc12 [Example 10, 2-(2-Chlorophenyl)-N-[(3S)-9-fluoro-2-oxo-5-phenyl-1,3-dihydro-1,4-benzodiazepin-3-yl]pyrazolo[1,5-a]pyrimidine-3-carboxamide]",77,6.33,> 2.33,1.83,21100
"O=C(N[C@H]1N=C(c2ccccc2)c2cccc(F)c2NC1=O)c1c(-c2c(F)cccc2F)nn2cccnc12 [Example 44, 2-(2,6-Difluorophenyl)-N-[(3S)-9-fluoro-2-oxo-5-phenyl-1,3-dihydro-1,4-benzodiazepin-3-yl]pyrazolo[1,5-a]pyrimidine-3-carboxamide]",87,12.5,9.07,3.85,> 25000
"O=C(N[C@H]1N=C(c2ccccc2)c2ccccc2NC1=O)c1c(-c2ccc(C3CC3)nc2)nn2cccnc12 [Example 29, 2-(6-Cyclopropylpyridin-3-yl)-N-[(3S)-2-oxo-5-phenyl-1,3-dihydro-1,4-benzodiazepin-3-yl]pyrazolo[1,5-a]pyrimidine-3-carboxamide]",72,1.23,5.22,15.2,> 25000
"Cc1ccc2nc(-c3ccc(F)cn3)c(C(=O)N[C@H]3N=C(c4ccccc4)c4cccc(F)c4NC3=O)n2n1 [Example 78, N-[(3S)-9-fluoro-2-oxo-5-phenyl-1,3-dihydro-1,4-benzodiazepin-3-yl]-2-(5-fluoropyridin-2-yl)-6-methylimidazo[1,2-b]pyridazine-3-carboxamide]",81,4.17,3.83,0.923,> 25000
"O=C(N[C@H]1N=C(c2ccccc2)c2ccccc2NC1=O)c1c(-c2ccc(NC3CC3)nc2F)nn2cccnc12 [Example 48, 2-[6-(Cyclopropylamino)-2-fluoropyridin-3-yl]-N-[(3S)-2-oxo-5-phenyl-1,3-dihydro-1,4-benzodiazepin-3-yl]pyrazolo[1,5-a]pyrimidine-3-carboxamide]",13,0.37,14.8,3.62,> 25000
"O=C(N[C@H]1N=C(c2ccccc2)c2ccccc2NC1=O)c1c(-c2ccc(F)cc2F)nn2cccnc12 [Example 4, 2-(2,4-difluorophenyl)-N-[(3S)-2-oxo-5-phenyl-1,3-dihydro-1,4-benzodiazepin-3-yl]pyrazolo[1,5-a]pyrimidine-3-carboxamide]",62,3.93,> 2.33,> 2.33,> 25000
"O=C(N[C@H]1N=C(c2ccccc2)c2cccc(F)c2NC1=O)c1c(-c2cc(F)ccc2F)nn2cccnc12 [Example 7, 2-(2,5-Difluorophenyl)-N-[(3S)-9-fluoro-2-oxo-5-phenyl-1,3-dihydro-1,4-benzodiazepin-3-yl]pyrazolo[1,5-a]pyrimidine-3-carboxamide]",107,2.5,10.7,2.08,> 25000
"Cc1ccc2nc(-c3ccncc3F)c(C(=O)N[C@H]3N=C(c4ccccc4)c4cccc(F)c4NC3=O)n2n1 [Example 100, N-[(3S)-9-fluoro-2-oxo-5-phenyl-1,3-dihydro-1,4-benzodiazepin-3-yl]-2-(3-fluoropyridin-4-yl)-6-methylimidazo[1,2-b]pyridazine-3-carboxamide]",47,1.37,15.1,0.457,> 25000
"CNc1ccc(-c2nn3cccnc3c2C(=O)N[C@H]2N=C(c3ccccc3)c3ccccc3NC2=O)cc1 [Example 1, 2-[4-(Methylamino)phenyl]-N-[(3S)-2-oxo-5-phenyl-1,3-dihydro-1,4-benzodiazepin-3-yl]pyrazolo[1,5-a]pyrimidine-3-carboxamide]",35,1.25,1.22,0.678,> 25000
"CNc1ccc(-c2nn3cccnc3c2C(=O)N[C@H]2N=C(c3ccccc3)c3ccccc3NC2=O)c(F)c1 [Example 16, 2-[2-Fluoro-4-(methylamino)phenyl]-N-[(3S)-2-oxo-5-phenyl-1,3-dihydro-1,4-benzodiazepin-3-yl]pyrazolo[1,5-a]pyrimidine-3-carboxamide]",18,0.657,1.5,0.652,> 25000
"Cc1ccnc2c(C(=O)N[C@H]3N=C(c4ccccc4)c4ccccc4NC3=O)c(-c3ccccc3F)nn12 [Example 37, 2-(2-Fluorophenyl)-7-methyl-N-[(3S)-2-oxo-5-phenyl-1,3-dihydro-1,4-benzodiazepin-3-yl]pyrazolo[1,5-a]pyrimidine-3-carboxamide]",39,1.95,> 2.33,0.842,> 25000
